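Briefly, cells in 96-well plates were exposed to five compound concentrations for 48 h, and endpoints were estimated by linear interpolation. Abbreviation: GI50, concentration required for 50% inhibition of growth.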 Calls of active or inactive are those of the source. Cut-off read from the data, not from the text of the source: active = GI50 up to about 1.1 µM and inactive = higher.
Experiments:
Assay in all cases: NCI anticancer screen, dose series, 48 h
[1] = system: CAKI-1
[2] = system: CCRF-CEM
[3] = system: DU-145
[4] = system: EKVX
[5] = system: HCC 2998
[6] = system: HCT-15
[7] = system: IGROV-1
[8] = system: M14
[9] = system: MCF7
[10] = system: MDA-MB-231
[11] = system: NCI-H23
[12] = system: OVCAR-4
[13] = system: OVCAR-8
[14] = system: SK-MEL-5
[15] = system: SNB-75
[16] = system: SW-620
[17] = system: TK-10
[18] = system: U-251
[19] = system: UO-31
[20] = system: K562

SMILES | GI50 [1] | GI50 [2] | GI50 [3] | GI50 [4] | GI50 [5] | GI50 [6] | GI50 [7] | GI50 [8] | GI50 [9] | GI50 [10] | GI50 [11] | GI50 [12] | GI50 [13] | GI50 [14] | GI50 [15] | GI50 [16] | GI50 [17] | GI50 [18] | GI50 [19] | GI50 [20]
NC(=O)C/C=C/CC(N)=O | > 100 µM (inactive) | > 100 µM (inactive) | > 100 µM (inactive) | > 100 µM (inactive) | > 100 µM (inactive) | > 100 µM | > 100 µM (inactive) | > 100 µM (inactive) | > 100 µM (inactive) | > 100 µM (inactive) | > 100 µM (inactive) | > 100 µM (inactive) | > 100 µM (inactive) | > 100 µM (inactive) | > 100 µM (inactive) | > 100 µM (inactive) | > 100 µM (inactive) | > 100 µM (inactive) | > 100 µM (inactive) | 
c1ccc(CSc2nc(N3CCCCC3)c3cn[nH]c3n2)cc1 | 29.6 µM (inactive) | 44 µM (inactive) | 30.3 µM (inactive) | 20.3 µM (inactive) | 18.7 µM (inactive) | 33.2 µM | 17.5 µM (inactive) | 19.8 µM (inactive) | 26.9 µM (inactive) | 16.3 µM (inactive) | 26.4 µM (inactive) | 36.1 µM (inactive) | 23.4 µM (inactive) | 16.5 µM (inactive) | 20.7 µM (inactive) | 19.9 µM (inactive) | 30.1 µM (inactive) | 19.1 µM (inactive) | 16.6 µM (inactive) | 40.3 µM (inactive)
NNC(=O)CC(=O)Nc1ccc(Cl)cc1 | > 100 µM (inactive) | > 100 µM (inactive) | > 100 µM (inactive) | > 100 µM (inactive) | > 100 µM (inactive) | 34.7 µM | > 100 µM (inactive) |  | > 100 µM (inactive) | > 100 µM (inactive) | > 100 µM (inactive) | > 100 µM (inactive) | > 100 µM (inactive) | > 100 µM (inactive) | > 100 µM (inactive) | > 100 µM (inactive) | > 100 µM (inactive) | > 100 µM (inactive) | > 100 µM (inactive) | 48.6 µM (inactive)
Nc1nc(Cl)cc(NCC2(O)CCC2)n1 | > 100 µM (inactive) | > 10 µM (inactive) | > 100 µM (inactive) | > 100 µM (inactive) | > 100 µM (inactive) | > 100 µM | > 100 µM (inactive) |  | > 100 µM (inactive) | > 100 µM (inactive) | > 100 µM (inactive) | > 100 µM (inactive) | > 100 µM (inactive) | > 100 µM (inactive) | > 100 µM (inactive) | > 100 µM (inactive) | > 100 µM (inactive) | > 100 µM (inactive) | 56.5 µM (inactive) | > 100 µM (inactive)
COc1ccc(\N=C/C=C/C(=C/COC(C)=O)OC(C)=O)cc1 | 23.6 µM (inactive) | 4.56 µM (inactive) | 39.4 µM (inactive) | 51.8 µM (inactive) | > 100 µM (inactive) | 36.6 µM | 21.1 µM (inactive) | 32.7 µM (inactive) | 21.7 µM (inactive) | 19.6 µM (inactive) | 16.8 µM (inactive) | 27.2 µM (inactive) | 14.4 µM (inactive) | 29 µM (inactive) | > 100 µM (inactive) | 10.2 µM (inactive) | 37.2 µM (inactive) | 25.9 µM (inactive) |  | 4.89 µM (inactive)
O=[N+]([O-])c1cc(Cl)ccc1S(=O)(=O)c1cc(Cl)cc2c1NCCC2 | 66.7 µM (inactive) | 26.4 µM (inactive) | > 100 µM (inactive) | 85.7 µM (inactive) | > 100 µM (inactive) | 60.7 µM | 29.1 µM (inactive) | 53 µM (inactive) | 37.8 µM (inactive) | > 100 µM (inactive) |  | > 100 µM (inactive) | 56.6 µM (inactive) | 21.3 µM (inactive) | 18.4 µM (inactive) | > 100 µM (inactive) | > 100 µM (inactive) |  | 49.5 µM (inactive) | 24.5 µM (inactive)
Cc1ccc([N+](=O)[O-])cc1NC(=O)C(=O)C1CCC2=C(Sc3ccccc3N2)C1=O (stereo not given) | 52 µM (inactive) | 63.4 µM (inactive) | > 100 µM (inactive) | > 100 µM (inactive) | > 100 µM (inactive) | > 100 µM | > 100 µM (inactive) | > 100 µM (inactive) | > 100 µM (inactive) | > 100 µM (inactive) | > 100 µM (inactive) | > 100 µM (inactive) | 66.8 µM (inactive) | > 100 µM (inactive) | > 100 µM (inactive) | > 100 µM (inactive) | > 100 µM (inactive) | > 100 µM (inactive) | 60 µM (inactive) | 
COc1ccc(Br)c(/C=N\c2cccc3cc(OC)c(OC)cc23)c1 | > 82.4 µM (inactive) | 2.82 µM (inactive) | 52.1 µM (inactive) | 97.1 µM (inactive) | 28.4 µM (inactive) | 2.47 µM | 25.8 µM (inactive) | 3.84 µM (inactive) | 2.33 µM (inactive) | 15.5 µM (inactive) | 32.8 µM (inactive) | 40.6 µM (inactive) | 6.28 µM (inactive) | 17.5 µM (inactive) | 38.8 µM (inactive) | 7.08 µM (inactive) | 28.1 µM (inactive) | 2.99 µM (inactive) | 21.5 µM (inactive) | 3.52 µM (inactive)
N#Cc1c(-c2ccc(Cl)cc2)cc(-c2ccc(Nc3ccnc4cc(C(F)(F)F)ccc34)cc2)[nH]c1=O | > 43.4 µM (inactive) | 3.7 µM (inactive) | 22.9 µM (inactive) | > 100 µM (inactive) | > 100 µM (inactive) | > 100 µM | > 54.3 µM (inactive) | 4.31 µM (inactive) | 4.79 µM (inactive) | 19.3 µM (inactive) | > 45 µM (inactive) | 8.41 µM (inactive) | 38.3 µM (inactive) | 19.1 µM (inactive) | 11.7 µM (inactive) | 14 µM (inactive) | 24.4 µM (inactive) | 2.63 µM (inactive) |  | 3.52 µM (inactive)
Cn1c(=O)n2n(c1=O)C(S(=O)(=O)c1ccccc1)C2 (stereo not given) | > 100 µM (inactive) | > 100 µM (inactive) | > 100 µM (inactive) | > 100 µM (inactive) | > 100 µM (inactive) | > 100 µM | > 100 µM (inactive) | > 100 µM (inactive) | > 100 µM (inactive) | > 100 µM (inactive) | > 100 µM (inactive) | > 100 µM (inactive) | > 100 µM (inactive) | > 100 µM (inactive) | > 100 µM (inactive) | > 100 µM (inactive) | > 100 µM (inactive) | > 100 µM (inactive) | > 100 µM (inactive) | > 100 µM (inactive)
CCN1CCN=C2c3cc(OC)ccc3Nc3c([N+](=O)[O-])ccc1c32 | 0.485 µM (active) | 0.571 µM (active) | 2.72 µM (inactive) | 2.12 µM (inactive) | 0.78 µM (active) | 1.21 µM | 1.67 µM (inactive) | 1 µM (active) | 1.28 µM (inactive) | 0.736 µM (active) | 1.35 µM (inactive) | 1.29 µM (inactive) | 0.621 µM (active) | 1.17 µM (inactive) | 1.68 µM (inactive) | 0.472 µM (active) | 3.75 µM (inactive) |  |  | 0.473 µM (active)
